Measurements as given in US9205091B2, “Diazeniumdiolated compounds, pharmaceutical compositions, and method of treating cancer” (The United States of America, as represented by the …, priority 2009, dated 2015).

What was measured:
[1] = Rate of reaction with 4 mM glutathione (stability study, HPLC); format: physicochemical; details: for half-life upon treatment with glutathione (GSH): in comparison with that of JS-K; for t½ (min) Mean (SE): 4 mM glutathione (GSH), aqueous pH 7.4 phosphate buffered saline, 37° C.
Procedure: 490 μL of 2.25% Pluronic P123 in PBS is aliquoted into glass HPLC vials and maintained at 50° C. To this solution, 10 μL of 50 mM of compounds 6, 7, 9, and 11 in DMSO is added and maintained at 50° C. for 10 min. A glutathione stock solution (40 mM) is prepared in 0.1 M phosphate buffer pH 7.4. To 800 μL of 0.1 M phosphate buffer in a glass HPLC vial, 100 μL of glutathione stock solution and 100 μL of formulated prodrug are added. The disappearance of the compound is monitored using an Agilent 1100 series HPLC fitted with a C-18 reverse phase column (Phenomenex Luna 250×4.60 mm) operating at 300 nm and run isocratically with acetonitrile:water (75:25).

[2] = test system: lung adenocarcinoma cells (cell line H441); assay: Proliferation of lung adenocarcinoma cells, JS-59-4 with olaparib (FIG. 2); format: cell-based, human; details: combination with the PARP inhibitor olaparib, in comparison to JS-59-4 alone
Procedure: FIG. 2 is a bar graph showing a synergistic effect of the administration of JS-59-4 with the PARP inhibitor olaparib in the inhibition of proliferation of lung adenocarcinoma cells (cell line H441). The white bar represents the control (i.e., no treatment). The light gray bar represents the administration of JS-59-4 alone (0.75 μM). The dark gray bar represents the administration of JS-59-4 alone (1 μM). The diagonally hatched bar represents the administration of olaparib alone (5 μM). The cross hatched bar represents the administration of olaparib alone (10 μM). The light gray diagonally gray bar represents the co-administration of JS-59-4 (0.75 μM) and olaparib (5 μM). The dark gray diagonally hatched bar represents the co-administration of JS-59-4 (1 μM) and olaparib (5 μM). The light gray cross hatched gray bar represents the co-administration of JS-59-4 (0.75 μM) and olaparib (10 μM). The dark gray cross hatched bar represents the co-administration of JS-59-4 (1 μM) and olaparib (10 μM).

[3] = test system: H1703 cells; assay: H1703 xenograft in athymic NCr-nu/nu mice, tumor weights (Example 10); format: in vivo; details: 8 micromols/kg i.v., three times a week for three weeks
Procedure: H1703 cells are harvested at 80% confluence, washed with PBS, and suspended in PBS. The cells are injected at 5×10^6 s.c. into a flank of 7-week-old female athymic NCr-nu/nu mice (Charles River). […] Animals are treated three times a week for three weeks with i.v. tail vein injections of either vehicle (2.25% P-123 in PBS) or 1 or 2 (6 micromols/kg in the vehicle) or 6 (8 micromols/kg). Body weights are taken before each drug injection. Animals are sacrificed two hours after the last drug injection and the tumors are excised and weighed. There are 13-15 mice/group at termination. The non-parametric Mann-Whitney test is utilized for statistical comparisons of tumor weights.

[4] = test system: H441; assay: CellTiter 96 MTT cell proliferation assay (Example 9); format: cell-based, human
Procedure: (§1) Cell lines derived from human non-small cell lung cancers are obtained from American Type Culture Collection (ATCC, Manassas, Va.), and are designated by their NCI numbers. Cells are maintained in RPMI 1640 medium (Gibco, Invitrogen, Carlsbad, Calif.), supplemented with 10% fetal calf serum (Gemini Bio-Products, Sacramento, Calif.), 100 U/mL penicillin/streptomycin, and 2 mM glutamine at 37° C. and 5% CO2.
(§2) For proliferation assays cells are seeded at 2×10^4/well in 96-well plates, allowed to adhere for 24 hrs, and then are treated with the drug or DMSO as a control for 48 hours. […] Compounds are prepared as 10 mM stock solution in dimethyl sulfoxide (Sigma, St. Louis, Mo.). Increasing drug concentrations in 10 μL of phosphate-buffered saline (PBS) are added to 100 μL of the culture medium and incubated at 37° C. for 72 h. The CellTiter 96 non-radioactive cell proliferation assay (MTT assay, Promega, Madison, Wis.), is performed according to the manufacturer's protocol. Each compound concentration is represented in six repeats, and the screening is performed as at least two independent experiments. IC50 values are calculated using Sigma Plot software (Systat Software).

[5] = test system: H1944; assay: as above; format: cell-based, human
Procedure: as §1, §2

[6] = test system: H2122; assay: as above; format: cell-based, human
Procedure: as §1, §2

[7] = test system: H1703; assay: as above; format: cell-based, human
Procedure: as §1, §2

[8] = test system: H1373; assay: as above; format: cell-based, human
Procedure: as §1, §2

[9] = test system: SAPK/JNK and p38; assay: Tiron pre-treatment before JS-36-25, stress kinase phosphorylation; format: cell-based, human; details: 10 mM Tiron 1 hour, then 30 minutes 1 μM JS-36-25
Procedure: Immunoblotting: For protein immunoblotting the cells are harvested in lysis buffer (25 mM Hepes buffer containing 150 mM NaCl, 10 mM MgCl2, 1% Nonidet P40, 0.25% sodium deoxycholate, 10% glycerol, 2.5 mM EDTA, supplemented with Complete proteinase inhibitors cocktail (Behringer). Cell extracts are resolved by SDS-polyacrylamide gel electrophoresis (4-12% Bis-Tris gels or 3-8% Tris-acetate gels, Invitrogen Life Technologies, Carlsbad, Calif.) then immunoblotted to PVDF membrane (Invitrogen). Antibodies to phospho-ATM, Phospho-ATR, cleaved caspases 3 and 7, phospho-SAPK/JNK and SAPK/JNK, phospho-ATF2, phospho-p38 and p38, phospho-c-jun and c-jun, and PARP are purchased from Cell Signaling Technology (Danvers, Mass.). Anti-ATF3 polyclonal antibodies are from Santa Cruz Biotechnology (Santa Cruz, Calif.). […] The cells are pre-treated for 1 hour with 10 mM Tiron, followed by 30 minutes incubation with 1 μM of JS-36-25. In the Tiron-treated cells phosphorylation of both SAPK/JNK and p38 by JS-36-25 is diminished in comparison with JS-36-25-only treated cells (FIG. 3C).

[10] = test system: H1703 cell line; assay: Tiron protection against JS-K toxicity; format: cell-based, human

Structure (SMILES)	half-life upon treatment with glutathione (GSH) [1]	t½ (min) Mean (SE) [1]	IC50 [4] [µM]	IC50 [5] [µM]	IC50 [6] [µM]	IC50 [7] [µM]	IC50 [8] [µM]	SAPK/JNK and p38 phosphorylation by JS-36-25 [9]	antiproliferative activity of the combination [2]	H1703 tumor growth in vivo [3]	effect on JS-K toxicity [10]
CCOC(=O)N1CCN(/[N+]([O-])=N/Oc2cc(C)c([N+](=O)[O-])cc2[N+](=O)[O-])CC1 [Compound 6, O^2-(2,4-dinitrophenyl-5-methyl) 1-[(4-ethoxycarbonyl)piperazin-1-yl]diazen-1-ium-1,2-diolate]		71.5 (4.3) min	1.61	> 10	7	0.97	1.86			did not result in reduction	
CCOC(=O)N1CCCN(/[N+]([O-])=N/Oc2cc(OC)c([N+](=O)[O-])cc2[N+](=O)[O-])CC1 [Compound 11, O^2-(2,4-dinitrophenyl-5-methoxy) 1-[(4-ethoxycarbonyl)homopiperazin-1-yl]diazen-1-ium-1,2-diolate]		59.6 (4.2) min	3.15	> 10	10	1.82	3.08				
CCOC(=O)N1CCCN(/[N+]([O-])=N/Oc2cc(C)c([N+](=O)[O-])cc2[N+](=O)[O-])CC1 [Compound 7, O^2-(2,4-dinitrophenyl-5-methyl) 1-[(4-ethoxycarbonyl)homopiperazin-1-yl]diazen-1-ium-1,2-diolate]		25.7 (1.0) min	2.02	> 10	10	1.66	3				
CCOC(=O)N1CCN(/[N+]([O-])=N/Oc2cc(OC)c([N+](=O)[O-])cc2[N+](=O)[O-])CC1 [Compound 9, O^2-(2,4-dinitrophenyl-5-methoxy) 1-[(4-ethoxycarbonyl)piperazin-1-yl]diazen-1-ium-1,2-diolate]		38.6 (2.8) min	2.5	> 10	5.78	1.57	2.1				

Further lines, with some results ahead:

half-life upon treatment with glutathione (GSH) [1]	t½ (min) Mean (SE) [1]	IC50 [4] [µM]	IC50 [5] [µM]	IC50 [6] [µM]	IC50 [7] [µM]	IC50 [8] [µM]	SAPK/JNK and p38 phosphorylation by JS-36-25 [9]	Structure (SMILES)	antiproliferative activity of the combination [2]	H1703 tumor growth in vivo [3]	effect on JS-K toxicity [10]
prolonged half-life								CCOC(=O)N1CCN(/[N+]([O-])=N/Oc2ccc([N+](=O)[O-])cc2C#N)CC1 [JS-59-4]	significantly enhanced antiproliferative activity		
							significantly reduces	O=S(=O)(O)c1cc(O)c(O)c(S(=O)(=O)O)c1 [Tiron]			protective effect
prolonged half-life								CCOC(=O)N1CCN(/[N+]([O-])=N/Oc2ccc(C#N)cc2[N+](=O)[O-])CC1 [JS-59-131]			
